Data as given in patent US20150250167A1, “COMPOSITION FOR NOXIOUS ORGANISMS-CONTROLLING AGENT AND METHOD FOR USING THE SAME” (priority 2001, published 2015).

What was measured:
[1] = test system: Cutworm; assay: Test for the effect against cutworm on beet, drench, number of injured hills per 100 hills; type: in vivo; conditions: 15 g ai/10a
Procedure: Test for the Effect Against Cutworm on Beet
Beet seedlings (variety: Monoace S) planted in a paper pot was treated with 3 L/m^2 of a solution of an agent diluted to a predetermined concentration, by the method of drench. Just after the drench, the plant was set. Predetermined days after the setting, the number of injured hills per 100 hills was counted.

[2] = test system: Smaller Tea Tortrix (Adoxophyes orana fosciota); assay: Insecticidal test on smaller tea tortrix, tea leaf dipping; type: in vivo; conditions: single agent 0.3 ppm, 4th instar larvae, 25° C.
Procedure: Insecticidal Test on Smaller Tea Tortrix (Adoxophyes orana fosciota)
Tea leaves were dipped in a solution of a chemical diluted to a prescribed concentration for 30 seconds. […] Four days and seven days after the treatment, the number of alive insects were counted, from which percentage of death was calculated.

[3] = test system: Diamondback Moth (Plutella xyloxtella); assay: Control of diamondback moth on cabbage by soil treatment, number of parasitic insects; type: in vivo; conditions: 5 mg ai/hill, 21 days after transplanting
Procedure: (§1) Test for the Control of Diamondback Moth (Plutella xyloxtella) and Aphid on Cabbage by Soil Treatment
(§2) A granular preparation was mixed into bed soil, and the mixture was filled into a cell seedling box and sown with seeds of cabbage (variety: YR Seitoku). Otherwise, cell seedling planted cabbage was treated with the granular agent either by a treatment in the foliage leaf extraction period, or by a pre-transplanting treatment, or by a pricking-in hole treatment, or by a plant foot treatment after the planting. Twenty one days after the transplanting (in the middle of June), the number of parasitic insects was counted on 30 hills in the case of diamondback moth and on 10 hills in the case of aphid.

[4] = test system: Southern Root-Knot Nematode (Meloidogyne incognita); assay: Test for the effect on southern root-knot nematode, soil blending with granular preparation; type: in vivo; conditions: 300 g ai/10a, single agent, 60 days after treatment
Description: Test for the Effect on Southern Root-Knot Nematode (Meloidogyne incognita)
Two killograms of a soil polluted with southern root-knot nematode was blended with a predetermined dose of a granular preparation. The mixture was filled into a 1/5,000 are Wagner pot. After sowing melon seeds and carrying out the treatment of the present invention, the pot was left to stand in a greenhouse. Sixty days after the treatment, 25 g of the soil was sampled out, the nematode was separated therefrom according to the method of Berman, and the numbers of nematodes were counted after 48 hours.
In the tables, “ai” means active ingredient.

[5] = test system: Resistant Strain of Two-Spotted Spider Mite; conditions: 100 ppm, single agent, 2 days after spraying
[6] = test system: Green Peach Aphid (Myzus persicae); assay: Insecticidal test on green peach aphid, spraying of Chinese cabbage, control value; type: in vivo; conditions: 100 ppm, single agent, 6 days after spraying
[7] = test system: Rice Blast; conditions: in vivo
[8] = test system: Citrus Yellow Thrips (Frankliniella occidentalis); assay: Control of citrus yellow thrips on egg plant by combined use with natural enemy pesticide, number of thrips; type: in vivo; conditions: 100 ppm, spray
[9] = test system: Rice Water Weevil (Lissorhoptrus oryzophilus); assay: Control of rice water weevil on paddyfield rice by nursery box application, extent of injury; type: in vivo; conditions: 0.5 g ai/Box, single agent
[10] = test system: Small Brown Planthopper (Laodelphax striatellus); assay: Control of small brown planthopper on paddyfield rice by nursery box application, number of parasitic insects; type: in vivo; conditions: 0.5 g ai/Box, single agent
Procedure: (§3) Test for the Control of Small Brown Planthopper (Laodelphax striatellus) and Rice Leafroller (Cnaphalocrosis medinalis) on Paddyfield Rice Plant by Nursery Box Application
(§4) Fifty grams of a granular preparation was applied to rice plant (variety: Nihombare) cultured in a nursery box, after which the rice plant was transplanted to the main paddy field (in the middle of May). The controlling effect against small brown planthopper was evaluated by investigating the number of parasitic insects on 30 hills per each plot, 40 days and 60 days after the transplantation. The controlling effect against rice leafroller was evaluated by investigating the number of injured leaves on 100 hills per each plot, 50 days after the transplantation.

[11] = test system: Brown Rice Planthopper (Nilaparvata lugens); assay: Insecticidal test on brown rice planthopper, rice seedling dipping; type: in vivo; conditions: 100 ppm, single agent; for Death rate (%) After 1 days: after 1 day
Description: Insecticidal Test on Brown Rice Planthopper (Nilaparvata lugens)
Rice seedlings (variety: Nihombare) were dipped in a solution of an agent diluted to a predetermined concentration for 30 seconds. After air-dryness, each seedling was introduced into a glass-made test tube having a diameter of 1.8 cm and a height of 20 cm, and inoculated with ten 3rd inster nimphs of brown rice planthopper. Then, the test tube was stoppered with cotton. One day after and four days after the treatment, the number of alive insects was counted, based on which the insect death rate was calculated.

[12] = test system: Rice Leafroller (Cnaphalocrosis medinalis); assay: Control of rice leafroller on paddyfield rice by nursery box application, number of injured leaves; type: in vivo; conditions: 0.5 g ai/Box, single agent
Procedure: as §3, §4

[13] = test system: Aphid; assay: Control of aphid on cabbage by soil treatment, number of parasitic insects; type: in vivo; conditions: 5 mg ai/hill, 21 days after transplanting
Procedure: as §1
as §2, with “Twenty one days after the transplanting (in the middle of June), the number of parasitic insects was counted on 30 hills in the case of diamondback moth and on 10 hills in the case of aphid.” left out

[14] = true leaf extraction season treatment

SMILES | Number of injured hills per 100 hills, After 60 days [1] | Number of injured hills per 100 hills, After 90 days [1] | Number of injured hills per 100 hills, After 120 days [1] | Death rate (%) After 4 days [2] | Death rate (%) After 7 days [2] | Number of parasitic insects per 30 hills, Diamondback moth ([3]; plant foot treatment) | Number of parasitic insects per 30 hills, Diamondback moth ([3]; pre-transplanting treatment) | Number of parasitic insects per 30 hills, Diamondback moth ([3]; pricking-in hole treatment) | Number of parasitic insects per 30 hills, Diamondback moth ([3]; soil incorporation) | Number of parasitic insects per 30 hills, Diamondback moth [3, 14] | Number of nematodes per 25 g of soil sample [4] | Death rate (%) [5] | Control degree (%) [6] | Areal rate of disease spot (%) After 60 days [7] | Number of parasitic insects per 20 leaves, After 60 days [8] | Number of parasitic insects per 20 leaves, After 90 days [8] | Number of parasitic insects per 20 leaves, After 120 days [8] | Extent of injury After 21 days [9] | Number of parasitic planthoppers per 30 hills After 40 days [10] | Number of parasitic planthoppers per 30 hills After 60 days [10] | other results
Cc1cc(C(F)(F)C(F)(F)F)ccc1NC(=O)c1cccc(I)c1C(=O)NC(C)C [Compound 41] | 0 | 7 | 21 | 0% | 30% | 2 | 1 | 2 | 3 | 2 | 31 | 0% | 0% | 8.5% | 18 | 29 | 59 | 43.2 | 333 | 385 | Death rate (%) After 1 days [11]: 0%; Death rate (%) After 5 days [11]: 0%; Percentage of injured leaves (%) After 50 days [12]: 0.35%; Number of parasitic insects per 30 hills, Aphid ([13]; plant foot treatment): 456; Number of parasitic insects per 30 hills, Aphid ([13]; pre-transplanting treatment): 458; Number of parasitic insects per 30 hills, Aphid ([13]; pricking-in hole treatment): 511; Number of parasitic insects per 30 hills, Aphid ([13]; soil incorporation): 457; Number of parasitic insects per 30 hills, Aphid [13, 14]: 495
Cc1cc(C(F)(F)C(F)(F)C(F)(F)F)ccc1NC(=O)c1cccc(I)c1C(=O)NC(C)C [Compound 42] | 0 | 8 | 22 | 0% | 30% | 3 | 3 | 1 | 3 | 2 | 28 | 0% | 0% | 8.3% | 19 | 25 | 50 | 39.5 | 345 | 389 | Death rate (%) After 1 days [11]: 0%; Death rate (%) After 5 days [11]: 0%; Percentage of injured leaves (%) After 50 days [12]: 0.22%; Number of parasitic insects per 30 hills, Aphid ([13]; plant foot treatment): 498; Number of parasitic insects per 30 hills, Aphid ([13]; pre-transplanting treatment): 435; Number of parasitic insects per 30 hills, Aphid ([13]; pricking-in hole treatment): 473; Number of parasitic insects per 30 hills, Aphid ([13]; soil incorporation): 475; Number of parasitic insects per 30 hills, Aphid [13, 14]: 485
Cc1cc(C(F)(C(F)(F)F)C(F)(F)F)ccc1NC(=O)c1cccc(I)c1C(=O)NC(C)C [Compound 43] | 0 | 6 | 19 | 0% | 35% | 2 | 3 | 1 | 2 | 2 | 36 | 0% | 0% | 8.9% | 23 | 31 | 57 | 44.3 | 309 | 334 | Death rate (%) After 1 days [11]: 0%; Death rate (%) After 5 days [11]: 0%; Percentage of injured leaves (%) After 50 days [12]: 0.17%; Number of parasitic insects per 30 hills, Aphid ([13]; plant foot treatment): 467; Number of parasitic insects per 30 hills, Aphid ([13]; pre-transplanting treatment): 482; Number of parasitic insects per 30 hills, Aphid ([13]; pricking-in hole treatment): 447; Number of parasitic insects per 30 hills, Aphid ([13]; soil incorporation): 501; Number of parasitic insects per 30 hills, Aphid [13, 14]: 448
Cc1cc(OC(F)(F)F)ccc1NC(=O)c1cccc(I)c1C(=O)NC(C)C [Compound 44] | 0 | 7 | 20 | 0% | 20% | 2 | 3 | 3 | 3 | 2 | 29 | 0% | 0% | 9.1% | 25 | 33 | 53 | 45.9 | 323 | 358 | Death rate (%) After 1 days [11]: 0%; Death rate (%) After 5 days [11]: 0%; Percentage of injured leaves (%) After 50 days [12]: 0.24%; Number of parasitic insects per 30 hills, Aphid ([13]; plant foot treatment): 492; Number of parasitic insects per 30 hills, Aphid ([13]; pre-transplanting treatment): 498; Number of parasitic insects per 30 hills, Aphid ([13]; pricking-in hole treatment): 478; Number of parasitic insects per 30 hills, Aphid ([13]; soil incorporation): 449; Number of parasitic insects per 30 hills, Aphid [13, 14]: 502
